We go through 27 molecules from US20240124412A1, “IKAROS ZINC FINGER FAMILY DEGRADERS AND USES THEREOF” (Gilead Sciences, Inc., priority 2021, published 2024).

Where two headings read alike, the source gives them in different places.

In one test the target is T1, IKZF1 (Homo sapiens, UniProt Q13422+Q96SW2).
T1 construct: expressed in transfected cells
Description: HiBiT protein tagging assay, in vitro IKZF1 degradation (HEK293). Type of test: cell-based. The following applies: for Dmax: read-out: IKZF1 Dmax (maximum degradation at the highest concentration tested). The gist of the method: (§1)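 Flp-In T-REx HEK293 pools stably expressing C-terminal HiBiT-tagged IKZF1 or IKZF2 were induced overnight with 1 μg/ml doxycycline. Cells were then treated with serially diluted compound for 18-24 hr at 37 °C and read by Nano-Glo lytic luminescence. Data were normalized to 0.5% DMSO as POC; EC50 and Dmax (maximum degradation at highest concentration tested) reported.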

The next test deals with T2, IKZF2 (Homo sapiens, UniProt Q96SW2+Q9UKS7).
T2 construct: expressed in transfected cells
Description: HiBiT protein tagging assay, in vitro IKZF2 degradation (HEK293). Type of test: cell-based. The gist of the method: as §1

[1] abbreviates: HEK293, HiBiT assay, HEK293, 18-24 hr incubation, normalized to DMSO control; read-out: IKZF2 Dmax (maximum degradation at the highest concentration tested).
Setting [2] is: HEK293, 18-24 hr incubation, normalized to DMSO control.
Where [3] appears, read: HEK293, 18-24 hr incubation, normalized to DMSO control, read-out: IKZF1 EC50.
[4] abbreviates: HiBiT assay, HEK293, 18-24 hr incubation, normalized to DMSO control; read-out: IKZF2 EC50.

T1 sequence (Q13422 whole entry): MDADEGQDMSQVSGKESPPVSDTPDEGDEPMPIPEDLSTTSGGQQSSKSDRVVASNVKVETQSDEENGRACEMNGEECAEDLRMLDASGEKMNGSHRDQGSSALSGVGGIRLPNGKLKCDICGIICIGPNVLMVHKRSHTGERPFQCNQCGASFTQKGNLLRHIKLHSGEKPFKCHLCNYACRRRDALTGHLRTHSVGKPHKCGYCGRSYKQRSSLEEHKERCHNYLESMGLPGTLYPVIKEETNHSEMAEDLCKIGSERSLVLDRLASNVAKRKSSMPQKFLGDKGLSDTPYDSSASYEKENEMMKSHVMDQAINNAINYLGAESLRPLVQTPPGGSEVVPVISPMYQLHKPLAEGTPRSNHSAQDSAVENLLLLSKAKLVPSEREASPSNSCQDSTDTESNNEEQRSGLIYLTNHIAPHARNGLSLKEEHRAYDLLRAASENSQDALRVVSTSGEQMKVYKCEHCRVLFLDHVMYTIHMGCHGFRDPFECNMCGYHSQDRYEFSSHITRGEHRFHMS
T1 sequence (Q96SW2 whole entry): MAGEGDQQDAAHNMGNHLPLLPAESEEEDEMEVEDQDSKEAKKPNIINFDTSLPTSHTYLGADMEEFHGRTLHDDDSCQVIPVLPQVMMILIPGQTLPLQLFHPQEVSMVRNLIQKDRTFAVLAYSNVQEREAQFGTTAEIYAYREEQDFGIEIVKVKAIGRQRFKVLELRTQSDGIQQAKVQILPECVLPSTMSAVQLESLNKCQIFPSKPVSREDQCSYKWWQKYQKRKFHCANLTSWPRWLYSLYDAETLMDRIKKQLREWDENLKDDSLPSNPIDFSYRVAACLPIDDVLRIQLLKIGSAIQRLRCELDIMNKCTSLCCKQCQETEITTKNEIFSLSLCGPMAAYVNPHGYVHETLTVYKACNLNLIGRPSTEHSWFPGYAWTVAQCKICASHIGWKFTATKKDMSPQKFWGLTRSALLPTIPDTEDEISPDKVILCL
T1 sequence (Q16531 whole entry partner): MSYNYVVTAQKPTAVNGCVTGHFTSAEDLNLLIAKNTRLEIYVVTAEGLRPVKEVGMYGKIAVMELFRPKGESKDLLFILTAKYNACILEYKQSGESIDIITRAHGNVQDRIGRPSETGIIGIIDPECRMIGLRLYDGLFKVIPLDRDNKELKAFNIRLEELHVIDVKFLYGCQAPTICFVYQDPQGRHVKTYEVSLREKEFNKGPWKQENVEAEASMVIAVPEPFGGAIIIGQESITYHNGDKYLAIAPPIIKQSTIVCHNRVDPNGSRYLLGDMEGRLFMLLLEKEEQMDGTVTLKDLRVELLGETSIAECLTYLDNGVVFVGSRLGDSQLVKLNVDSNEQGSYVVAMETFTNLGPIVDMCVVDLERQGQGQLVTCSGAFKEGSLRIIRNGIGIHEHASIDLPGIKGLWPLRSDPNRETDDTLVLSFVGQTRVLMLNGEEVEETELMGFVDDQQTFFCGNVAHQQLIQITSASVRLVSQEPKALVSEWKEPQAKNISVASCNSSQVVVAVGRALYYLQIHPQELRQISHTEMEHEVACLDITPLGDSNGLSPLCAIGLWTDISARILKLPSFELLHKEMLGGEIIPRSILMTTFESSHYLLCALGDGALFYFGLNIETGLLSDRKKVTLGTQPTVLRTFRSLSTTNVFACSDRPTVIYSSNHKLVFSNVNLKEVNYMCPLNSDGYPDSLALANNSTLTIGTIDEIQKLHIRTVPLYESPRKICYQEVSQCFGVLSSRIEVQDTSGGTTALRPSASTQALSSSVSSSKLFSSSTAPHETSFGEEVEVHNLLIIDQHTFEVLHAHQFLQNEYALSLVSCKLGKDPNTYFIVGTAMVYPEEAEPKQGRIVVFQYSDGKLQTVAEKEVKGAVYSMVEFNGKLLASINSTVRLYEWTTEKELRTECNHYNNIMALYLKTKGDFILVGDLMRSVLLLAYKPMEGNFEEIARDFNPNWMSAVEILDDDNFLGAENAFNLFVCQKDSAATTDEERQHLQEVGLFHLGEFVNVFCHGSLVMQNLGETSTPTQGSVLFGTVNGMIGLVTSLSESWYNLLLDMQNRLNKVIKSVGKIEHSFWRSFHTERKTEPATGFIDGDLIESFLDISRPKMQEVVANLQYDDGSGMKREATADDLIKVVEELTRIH
T2 sequence (Q9UKS7 1-500 isoform Q9UKS7-2): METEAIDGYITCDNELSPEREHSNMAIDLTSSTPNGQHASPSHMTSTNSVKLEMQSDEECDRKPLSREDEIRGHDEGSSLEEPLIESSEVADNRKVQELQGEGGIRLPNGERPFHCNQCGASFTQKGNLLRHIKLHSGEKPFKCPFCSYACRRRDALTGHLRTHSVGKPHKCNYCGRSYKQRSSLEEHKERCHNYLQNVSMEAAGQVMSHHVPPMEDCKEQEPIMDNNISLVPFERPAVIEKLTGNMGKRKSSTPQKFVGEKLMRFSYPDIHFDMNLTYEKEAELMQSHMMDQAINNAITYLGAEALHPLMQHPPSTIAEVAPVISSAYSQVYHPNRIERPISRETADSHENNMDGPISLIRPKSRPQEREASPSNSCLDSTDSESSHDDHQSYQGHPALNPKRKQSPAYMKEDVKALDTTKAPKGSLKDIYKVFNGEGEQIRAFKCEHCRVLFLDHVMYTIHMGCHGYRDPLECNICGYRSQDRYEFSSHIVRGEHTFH
T2 sequence (Q96SW2 whole entry): as the sequence (Q96SW2 whole entry) above
T2 sequence (Q16531 whole entry partner): as the sequence (Q16531 whole entry partner) above

Consider `O=C1CCC(N2Cc3cc(CNC4(c5ccc(F)cc5)CCCCC4)ccc3C2=O)C(=O)N1` (centres unmarked) [Example 153, 3-(5-(((1-(4-fluorophenyl)cyclohexyl)amino)methyl)-1-oxoisoindolin-2-yl)piperidine-2,6-dione], for which the DC50 at IKZF1 (read-out: IKZF1 EC50, HEK293, 18-24 hr incubation, normalized to DMSO control) is more than 1000 nM; on IKZF2 (read-out: IKZF2 EC50; HiBiT assay, HEK293, 18-24 hr incubation, normalized to DMSO control) it was 122 nM. For the same molecule, on IKZF2 (setting [1]), the Dmax stood at 36%.

In the case of `C[C@@H](CO)NCc1ccc2c(c1)CN(C1CCC(=O)NC1=O)C2=O` (some centres unmarked) [Example 53], the results for the Dmax at IKZF1 (setting [2]) and at IKZF2 (setting [1]) were 24% and 20%, respectively. In addition, the DC50 at IKZF1 (setting [3]) came out at 289 nM; on IKZF2 (setting [4]), 460 nM.

As to `O=C1CCC(N2Cc3cc(CN[C@H]4CCCc5ccccc54)ccc3C2=O)C(=O)N1` (stereo partly drawn) [Example 43, 3-(1-oxo-5-((((S)-1,2,3,4-tetrahydronaphthalen-1-yl)amino)methyl)isoindolin-2-yl)piperidine-2,6-dione], the Dmax on IKZF1 (setting [2]) was found to be 71%; on IKZF2 (setting [1]), 78%. Also, the values for the DC50 at IKZF1 (setting [3]) and at IKZF2 (setting [4]) were 32 nM and 64 nM, respectively.

Regarding `O=C1CCC(N2Cc3cc(CN[C@@H]4CCCN(Cc5ccccc5Cl)C4)ccc3C2=O)C(=O)N1` (stereo partly drawn) [Example 26, 3-(5-((((R)-1-(2-chlorobenzyl)piperidin-3-yl)amino)methyl)-1-oxoisoindolin-2-yl)piperidine-2,6-dione], the Dmax at IKZF1 (setting [2]) and at IKZF2 (setting [1]) was 97% in each case. Moreover, the DC50 on IKZF1 (setting [3]) amounted to 1 nM; on IKZF2 (setting [4]), 7 nM.

On to `CC1(C)C[C@]2(CC[C@@H](NCc3ccc4c(c3)CN(C3CCC(=O)NC3=O)C4=O)CC2)CO1` (some centres unmarked) [Example 118], for which the Dmax was 51% at IKZF1 (setting [2]) and 78% at IKZF2 (setting [1]). Also, the DC50 at IKZF1 (setting [3]) was found to be 335 nM; on IKZF2 (setting [4]), 453 nM.

As for `C[C@H](CO)NCc1ccc2c(c1)CN(C1CCC(=O)NC1=O)C2=O` (stereo partly drawn) [Example 51, 3-[5-[[[(1R)-2-hydroxy-1-methyl-ethyl]amino]methyl]-1-oxo-isoindolin-2-yl]piperidine-2,6-dione], the values for the Dmax at IKZF1 (setting [2]) and at IKZF2 (setting [1]) were 36% and 17%, respectively. The DC50 on IKZF1 (setting [3]) amounted to 263 nM; on IKZF2 (setting [4]), 1200 nM.

`CO[C@H]1CCCC[C@H]1NCc1ccc2c(c1)CN(C1CCC(=O)NC1=O)C2=O` (some centres unmarked) [Example 107]: the Dmax at IKZF1 (setting [2]) amounted to 38%; on IKZF2 (setting [1]), 28%. Further, the DC50 at IKZF1 (setting [3]) worked out at 158 nM; on IKZF2 (setting [4]) it was 265 nM.

As to `CC1(NCc2ccc3c(c2)CN(C2CCC(=O)NC2=O)C3=O)CCCC1` (centres unmarked) [Example 151, 3-(5-(((1-methylcyclopentyl)amino)methyl)-1-oxoisoindolin-2-yl)piperidine-2,6-dione], the Dmax was 26% on IKZF1 (setting [2]) and 81% on IKZF2 (setting [1]). Moreover, the DC50 was determined as 172 nM at IKZF1 (setting [3]) and 151 nM at IKZF2 (setting [4]).

In the case of `O=C1CCC(N2Cc3cc(CN[C@H]4CCC[C@@H](Cc5ccccc5)C4)ccc3C2=O)C(=O)N1` (relative stereo) [Example 12, 3-(5-((((1,3-cis)-3-benzylcyclohexyl)amino)methyl)-1-oxoisoindolin-2-yl)piperidine-2,6-dione], the Dmax is 95% at IKZF1 (setting [2]) and 96% at IKZF2 (setting [1]). Further, the figures for the DC50 at IKZF1 (setting [3]) and on IKZF2 (setting [4]) were 3 nM and 10 nM, respectively.

In the case of `O=C1CCC(N2Cc3cc(CNC4CCN(Cc5ccccc5)CC4)ccc3C2=O)C(=O)N1` (centres unmarked) [Example 1, 3-(5-(((1-benzylpiperidin-4-yl)amino)methyl)-1-oxoisoindolin-2-yl)piperidine-2,6-dione], the results for the Dmax on IKZF1 (setting [2]) and on IKZF2 (setting [1]) were 51% and 67%, respectively. Further, the DC50 at IKZF1 (setting [3]) was 255 nM; on IKZF2 (setting [4]), 342 nM.

`O=C1CCC(N2Cc3cc(CNC4CCCCC4)ccc3C2=O)C(=O)N1` (centres unmarked) [Example 5, 3-(5-((Cyclohexylamino)methyl)-1-oxoisoindolin-2-yl)piperidine-2,6-dione]: the Dmax came to 38% at IKZF1 (setting [2]) and 78% on IKZF2 (setting [1]). Moreover, the values for the DC50 at IKZF1 (setting [3]) and on IKZF2 (setting [4]) were 123 nM and 118 nM, respectively.

With `O=C1CCC(N2Cc3cc(CNC4CCCC(CO)C4)ccc3C2=O)C(=O)N1` (stereo not drawn) [Example 97, 3-(5-((((1,3-trans)-3-(hydroxymethyl)cyclohexyl)amino)methyl)-1-oxoisoindolin-2-yl)piperidine-2,6-dione], the Dmax at IKZF1 (setting [2]) worked out at 64%; at IKZF2 (setting [1]), 66%. Also, the values for the DC50 on IKZF1 (setting [3]) and at IKZF2 (setting [4]) were 5100 nM and 1800 nM, respectively.

For `C[C@@]1(NCc2ccc3c(c2)CN(C2CCC(=O)NC2=O)C3=O)CCCN(Cc2ccccc2)C1` (stereo partly drawn) [Example 156, 3-(5-((((R)-1-benzyl-3-methylpiperidin-3-yl)amino)methyl)-1-oxoisoindolin-2-yl)piperidine-2,6-dione], the Dmax at IKZF1 (setting [2]) came out at 92%; on IKZF2 (setting [1]), 96%. Besides, the DC50 on IKZF1 (setting [3]) was found to be 58 nM; on IKZF2 (setting [4]), 35 nM.

As for `O=C1CCC(N2Cc3cc(CNC4CCCC5(CCCC5)C4)ccc3C2=O)C(=O)N1` (centres unmarked) [Example 133], the Dmax at IKZF1 (setting [2]) stood at 51%; on IKZF2 (setting [1]) it was 72%. Moreover, the DC50 on IKZF1 (setting [3]) worked out at 185 nM; on IKZF2 (setting [4]) it was 273 nM.

Consider `CC1(C)C[C@]2(CC[C@H](NCc3ccc4c(c3)CN(C3CCC(=O)NC3=O)C4=O)CC2)CO1` (some centres unmarked) [Example 117], for which the values for the Dmax at IKZF1 (setting [2]) and on IKZF2 (setting [1]) were 49% and 88%, respectively. The DC50 was 216 nM on IKZF1 (setting [3]) and 198 nM at IKZF2 (setting [4]).

`O=C1CCC(N2Cc3cc(CN[C@@H]4CCCN(C(=O)c5ccccc5)C4)ccc3C2=O)C(=O)N1` (stereo partly drawn) [Example 24, 3-(5-((((R)-1-benzoylpiperidin-3-yl)amino)methyl)-1-oxoisoindolin-2-yl)piperidine-2,6-dione]: the Dmax at IKZF1 (setting [2]) came out at 36%; at IKZF2 (setting [1]), 62%. For the same molecule, the DC50 at IKZF1 (setting [3]) came to 871 nM; at IKZF2 (setting [4]), 2000 nM.

For the molecule `CCCO[C@H]1CC[C@H](NCc2ccc3c(c2)CN(C2CCC(=O)NC2=O)C3=O)CC1` (some centres unmarked) [Example 75], the Dmax was 49% at IKZF1 (setting [2]) and 90% on IKZF2 (setting [1]). For the same molecule, the DC50 is 127 nM at IKZF1 (setting [3]) and 100 nM at IKZF2 (setting [4]).

For `O=C1CCC(N2Cc3cc(CN[C@@H]4CC5CCC4CC5)ccc3C2=O)C(=O)N1` (stereo partly drawn) [Example 94, 3-(5-((((R)-bicyclo[2.2.2]octan-2-yl)amino)methyl)-1-oxoisoindolin-2-yl)piperidine-2,6-dione], the DC50 on IKZF1 (setting [3]) was more than 10000 nM; on IKZF2 (setting [4]) it was 178 nM. In addition, the Dmax at IKZF2 (setting [1]) turned out to be 55%.

In the case of `O=C1CCC(N2Cc3cc(CN[C@@H]4CCCN(C(c5ccccc5)C(F)(F)F)C4)ccc3C2=O)C(=O)N1` (some centres unmarked) [Example 123], the Dmax at IKZF1 (setting [2]) is 95%; at IKZF2 (setting [1]), 87%. The values for the DC50 on IKZF1 (setting [3]) and on IKZF2 (setting [4]) were 10 nM and 56 nM, respectively.

With `O=C1CCC(N2Cc3cc(CNC4CC5CCC(C5)C4)ccc3C2=O)C(=O)N1` (centres unmarked) [Example 105], the figures for the Dmax on IKZF1 (setting [2]) and at IKZF2 (setting [1]) were 75% and 92%, respectively. Besides, the DC50 was 74 nM on IKZF1 (setting [3]) and 43 nM on IKZF2 (setting [4]).

`O=C1CCC(N2Cc3cc(CNC4(C5CC5)CCCCC4)ccc3C2=O)C(=O)N1` (centres unmarked) [Example 150, 3-(5-(((1-cyclopropylcyclohexyl)amino)methyl)-1-oxoisoindolin-2-yl)piperidine-2,6-dione]: the results for the DC50 on IKZF1 (setting [3]) and at IKZF2 (setting [4]) were more than 10000 nM and 445 nM, respectively. For the same molecule, the Dmax at IKZF2 (setting [1]) was determined as 47%.

As for `O=C1CCC(N2Cc3cc(CN[C@@H]4CCCC[C@H]4O)ccc3C2=O)C(=O)N1` (stereo partly drawn) [Example 40, 3-(5-((((1R,2R)-2-hydroxycyclohexyl)amino)methyl)-1-oxoisoindolin-2-yl)piperidine-2,6-dione], the values for the DC50 at IKZF1 (setting [3]) and at IKZF2 (setting [4]) were more than 10000 nM and 1200 nM, respectively. In addition, the Dmax at IKZF2 (setting [1]) was determined as 38%.

As to `O=C1CCC(N2Cc3cc(CN[C@H]4CCC[C@@H](Oc5ccccc5)C4)ccc3C2=O)C(=O)N1` (some centres unmarked) [Example 110], the values for the Dmax at IKZF1 (setting [2]) and at IKZF2 (setting [1]) were 55% and 72%, respectively. For the same molecule, the values for the DC50 on IKZF1 (setting [3]) and at IKZF2 (setting [4]) were 105 nM and 118 nM, respectively.

Turning to `O=C1CCC(N2Cc3cc(CN[C@@H]4CCCC[C@H]4CO)ccc3C2=O)C(=O)N1` (stereo partly drawn) [Example 73, 3-(5-((((1R,2R)-2-(hydroxymethyl)cyclohexyl)amino)methyl)-1-oxoisoindolin-2-yl)piperidine-2,6-dione], the figures for the Dmax at IKZF1 (setting [2]) and at IKZF2 (setting [1]) were 34% and 31%, respectively. In addition, the DC50 is 5800 nM on IKZF1 (setting [3]) and 1200 nM at IKZF2 (setting [4]).

`C[C@@H](NCc1ccc2c(c1)CN(C1CCC(=O)NC1=O)C2=O)c1ccccc1` (stereo partly drawn) [Example 16, 3-(1-oxo-5-((((R)-1-phenylethyl)amino)methyl)isoindolin-2-yl)piperidine-2,6-dione]: the Dmax stood at 71% on IKZF1 (setting [2]) and 54% at IKZF2 (setting [1]). The DC50 at IKZF1 (setting [3]) worked out at 41 nM; on IKZF2 (setting [4]) it was 260 nM.

Take `CO[C@@H]1CCCC[C@H]1NCc1ccc2c(c1)CN(C1CCC(=O)NC1=O)C2=O` (some centres unmarked) [Example 127]: the Dmax on IKZF1 (setting [2]) amounted to 57%; at IKZF2 (setting [1]) it was 85%. Besides, the results for the DC50 on IKZF1 (setting [3]) and on IKZF2 (setting [4]) were 213 nM and 170 nM, respectively.

On to `O=C1CCC(N2Cc3cc(CN[C@H]4CC[C@@H](C(F)(F)F)CC4)ccc3C2=O)C(=O)N1` (some centres unmarked) [Example 85], for which the Dmax worked out at 44% at IKZF1 (setting [2]) and 81% on IKZF2 (setting [1]). In addition, the DC50 at IKZF1 (setting [3]) turned out to be 117 nM; at IKZF2 (setting [4]), 114 nM.
